Measured values: patent publication US20220160908A1, “CHELATORS AND METHODS OF MAKING AND USING SAME” (The University Of British Columbia, priority 2019, published 2022)
Where two headings read alike, the source gives them in different places.

Experiments:
[1] = cited from earlier work
[2] = Protonation constants by combined potentiometric-spectrophotometric titrations; format: physicochemical; details: 25° C., l = […] (NaCl)
From the text: The basicity of different ionizable and non-ionizable protons determine the extent of the competition between the metal ion and the protons to the binding sites of the chelator during metal complexation. Therefore, protonation constants must be considered when evaluating the chelator. […] The remaining four protonation constants were not determined as these sites deprotonated at a pH below the electrode threshold. As a result but without being bound by theory, during metal complexation which preferably occurs at or near physiological pH for pharmaceutical purposes, competition from those protonation processes would be negligible.
FIGS. 4A, 4B and 4C show the absorption bands of the species involved in the protonation equilibria mentioned above at different pH, while Table 2 presents the protonation constants calculated from the experimental data using the HypSpec2014^25 and Hyperquad2013^26 programs. The speciation plots of different species of H4py4pa in FIG. 4D were calculated from the protonation constants in Table 2 with Hyss software.^27
All potentiometric titrations were carried out with a Metrohm Titrando 809 and a Metrohm Dosino 800 with a Ross combined electrode. A 20 mL and 25° C. thermostated glass cell with an inlet-outlet tube for nitrogen gas (purified through a 10% NaOH solution to exclude any CO2 prior to and during the course of the titration) was used as a titration cell. The electrode was calibrated daily in hydrogen ion concentration by direct titration of HCl with freshly prepared NaOH solution and the results were analyzed with Gran procedure^29 in order to obtain the standard potential E° and the ionic product of water pKw at 25° C. and 0.16 M NaCl as a supporting electrolyte. Solutions were titrated with carbonate-free NaOH (0.16 M) that was standardized against freshly recrystallized potassium hydrogen phthalate.
In the study of complex formation equilibria, the determination of the stability constant of [La(H4py4pa)] species was carried out by two different methods. The first method used UV-Vis spectrophotometric measurements on a set of solutions containing 1:1 metal to ligand molar ratio ([H4py4pa]=[M]^3+˜1.33×10^−4 M) and different amounts of HCl in the spectral range 200-400 nm at 25° C. and 1 cm path length. The molar absorptivities of all the protonated species of H4py4pa calculated with HypSpec2014^25 from the protonation constant experiments were included in the calculations. […] The stability constants for the complexes formed by H4edta and La^3+ were taken from literature.^31 Direct pH-potentiometric titrations of the La^3+-H4py4pa system were also carried out. Metal solution was prepared by adding the atomic absorption (AA) standard metal ion solution to a H4py4pa solution of known concentration in the 1:1 metal to ligand molar ratio for La(III). Ligand and metal concentrations were in the range of 0.6-0.8×10^−4 M. The exact amount of acid present in the atomic standard metal solutions standards was determined by Gran's method^29 titrating equimolar solutions of La(III) and Na2H2-EDTA. […] Three replicates of each titration were performed for each system. Relying on the stability constant for the species La(Hpy4pa) obtained by the two different methods, the fitting of the direct potentiometric titrations was possible and yielding the stability constants in Table 3. All the potentiometric measurements were processed using the Hyperquad2013 software^26 while the obtained spectrophotometric data were processed with the HypSpec2014^25 program. Proton dissociation constants corresponding to hydrolysis of La(III) aqueous ion included in the calculations were taken from Baes and Mesmer.^32 The overall equilibrium (formation) constants log β referred to the overall equilibria: pM+qH+rL ⇄MpHqLr (the charges are omitted), where p might also be 0 in the case of protonation equilibria and q can be negative for hydroxide species. […]

[3] = Complex formation equilibria with La(III): stability constants and pM; format: physicochemical
[4] = ligand-ligand potentiometric competition with EDTA at l = […] (NaCl) and 25° C.
[5] = potentiometric titrations at l = […] (NaCl) and 25° C.

O=C(O)c1cccc(CN2CCOCCOCCN(Cc3cccc(C(=O)O)n3)CCOCCOCC2)n1 [Compound H2macropa, N,N′-bis[(6-carboxy-2-pyridil)methyl]-4,13-diaza-18-crown-6]
log K[La(macropa)] ([1]; 25° C., l=0.1 M (KCl)): 14.99

O=C(O)CN1CCN(CC(=O)O)CCN(CC(=O)O)CCN(CC(=O)O)CC1 [DOTA, 1,4,7,10-tetraazacyclododecane-1,4,7,10-tetraacetic acid]
log K[La(DOTA)] ([1]; 25° C.): 24.25 | pM (La^3+) ([1]; -log [M]free at [ligand]=10 μM, [M]=1 μM, pH=7.4): 19.2

O=C(O)c1cccc(CN(Cc2cccc(CN(Cc3cccc(C(=O)O)n3)Cc3cccc(C(=O)O)n3)n2)Cc2cccc(C(=O)O)n2)n1 [Compound H4py4pa]
log K, H2L^2− + H^+ ⇌ H3L^− (pK9) [2]: 4.06 (2) | log K, H3L^− + H+ ⇌ H4L (pK8) [2]: 3.58 (2) | log K, H4L + H^+ ⇌ H5L^+ (pK7) [2]: 2.71 (3) | log K, H5L^+ + H^+ ⇌ H6L^2+ (pK6) [2]: 2.55 (4) | log K, H6L^2+ + H^+ ⇌ H7L^3+ (pK5) [2]: 2.31 (4) | log K, HL^3− + H^+ ⇌ H2L^2− (pK10) [2]: 6.07 (1) | log K, L^4− + H^+ ⇌ HL^3− (pK11) [2]: 6.96 (1) | log β, H2L^2− + H^+ ⇌ H3L^− [2]: 17.09 (2) | log β, H3L^− + H+ ⇌ H4L [2]: 20.67 (2) | log β, H4L + H^+ ⇌ H5L^+ [2]: 23.38 (3) | log β, H5L^+ + H^+ ⇌ H6L^2+ [2]: 25.93 (4) | log β, H6L^2+ + H^+ ⇌ H7L^3+ [2]: 28.24 (4) | log β, HL^3− + H^+ ⇌ H2L^2− [2]: 13.03 (1) | log β, L^4− + H^+ ⇌ HL^3− [2]: 6.96 (1) | pM (La^3+) ([3]; -log [M]free at [L] = 10 μM, [M] = 1 μM and pH = 7.4): 21.0 | log K, ML + H^+ ⇌ MHL ([3]; in-batch acidic spectrophotometric competition at 25° C., not evaluated at constant l): 4.01(5) | log K, M(OH)L + H^+ ⇌ ML [3, 4]: 9.94(3) | log K, ML + H^+ ⇌ MHL [3, 4]: 3.78(4) | log K, M^3+ + L ⇌ ML [3, 4]: 20.37(2) | log K, M(OH)L + H^+ ⇌ ML [3, 5]: 9.96(4) | log K, M^3+ + L ⇌ ML [3, 5]: 20.33(3)
